Reference: patent publication US12091402B2 (Avilar Therapeutics, Inc., priority 2021, dated 2024)
pEC50, pKd: −log10 of the molar value. Like-named read-outs stand apart in the source and are kept apart here.

Key:
[1] = target: T1, ASGPR receptor on the cell surface (HepG2 cells) (Homo sapiens, UniProt P07306); test: Ternary complex formation assay (flow cytometry, HepG2); format: cell-based; conditions: for EC50: Ternary Complex EC50 (nM), 100 nM AF488-labeled antibody, 1 hour at 4° C., class symbols
T1 construct: host or cells: HepG2
T1 sequence (P07306 1-291): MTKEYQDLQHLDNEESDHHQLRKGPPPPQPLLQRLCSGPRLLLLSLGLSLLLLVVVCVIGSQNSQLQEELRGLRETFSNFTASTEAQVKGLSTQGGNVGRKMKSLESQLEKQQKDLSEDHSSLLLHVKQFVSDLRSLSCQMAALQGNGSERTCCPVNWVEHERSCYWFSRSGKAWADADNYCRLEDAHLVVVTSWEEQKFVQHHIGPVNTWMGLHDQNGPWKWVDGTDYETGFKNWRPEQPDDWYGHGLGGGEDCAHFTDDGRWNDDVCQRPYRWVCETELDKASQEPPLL
T1 sequence (P07307 1-311 partner): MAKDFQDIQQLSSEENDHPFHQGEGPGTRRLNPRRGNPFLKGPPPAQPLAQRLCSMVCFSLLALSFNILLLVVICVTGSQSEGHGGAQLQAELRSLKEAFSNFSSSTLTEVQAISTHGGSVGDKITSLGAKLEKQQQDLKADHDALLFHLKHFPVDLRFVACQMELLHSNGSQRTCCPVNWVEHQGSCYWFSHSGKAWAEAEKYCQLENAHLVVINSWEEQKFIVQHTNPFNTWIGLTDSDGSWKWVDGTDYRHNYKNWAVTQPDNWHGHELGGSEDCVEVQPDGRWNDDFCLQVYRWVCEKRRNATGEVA
Excerpt: The ternary complex formation assay is designed to identify the concentration of Degrader required to form a complex between the degrader, a constant concentration of fluorescently-labeled antibody and the ASGPR receptor on the cell surface. The peak mean fluorescence intensity (MFI) occurs at the optimal degrader concentration for ternary complex formation. Sub-optimal concentrations of degrader (too much or too little) results in fewer complexes formed and a reduced […].
Human IgG (Sigma-Aldrich, 14506) was covalently labeled with Alexa Fluor 488 using the Alexa Fluor™ 488 Protein Labeling Kit (Thermo Fisher, A10235) following the manufacturer's instructions. HepG2 cells (ATCC, HIB-8065) were cultured to about 70% confluence and harvested by trypsinization. Single cell suspensions of HepG2 cells were plated in 96 well plates at 1×10^5 cells/well in cell culture media (DMEM supplemented with […]) and placed at 4° C. For studies using human IgG, cells were incubated with 100 nM AF488-labeled anti-human IgG and serial dilutions of IgG-based degrader for 1 hour at 4° C. For studies using DNP, cells were incubated with 100 nM AF488-labeled polyclonal rabbit anti-dinitrophenyl (DNP) antibodies (ThermoFisher) and serial dilutions of DNP-based degrader for 1 hour at 4° C. After washing once with ice-cold PBS containing 0.1% BSA and 0.1% sodium azide, cells were resuspended in 150 uL PBS+0.1% BSA and cell-associated AF488 fluorescence was measured by flow cytometry using the iQue® Screener PLUS Flow Cytometer (IntelliCyt).

HepG2 cells = test: Cellular uptake assay of AF488-labeled antibody (HepG2); format: cell-based; conditions: for pEC50: HepG2 cells, read-out: Uptake EC50; for EC50: Homo sapiens, HepG2, 6 h, read-out: Uptake Assay EC50 (nM)
In short: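 Ternary-complex uptake via ASGPR was imaged after fixation: the read-out is AF488-positive HepG2 cells divided by total DAPI nuclei. Degrader dilutions (IgG- or DNP-based, 0.1% DMSO final) were co-incubated 6 h at 37° C. with 100 nM of the corresponding fluorescent antibody.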

ASGPR = target: T2, ASGPR (Homo sapiens, UniProt P07306); test: Affinity to ASGPR by surface plasmon resonance (SPR)
T2 sequence (P07306 1-291): T1 sequence (P07306 1-291)

IgG = test: Affinity to IgG by surface plasmon resonance (SPR); format: binding; conditions: SPR; read-out: IgG KD
Protocol: Immobilization levels ranging from 1000-1300 resonance units (RU) are obtained. The running buffer is 10 mM HEPES, pH 7.4, 400 mM NaCl, 0.005% P20, […].

[2] = HepG2 cells, ternary complex formation, read-out: TCF EC50

| Structure (SMILES) | pEC50 [1] | pEC50 (HepG2 cells) | pKd (ASGPR) | pKd (IgG) | pEC50 [1, 2] | EC50 ([1]; HepG2 cells) [nM] | EC50 (HepG2 cells) [nM] |
| --- | --- | --- | --- | --- | --- | --- | --- |
| CC(C)C[C@@H]1NC(=O)[C@H](Cc2c[nH]cn2)NC(=O)[C@H](Cc2c[nH]c3ccccc23)NC(=O)[C@H](C)NC(=O)[C@@H](NC(=O)[C@H](CC(=O)O)NC(=O)CCOCCOCCOCCOCCNC(=O)CCCc2cn(CCCCCC(=O)NC(COCCC(=O)NCCOCCOCCOCCOC[C@H]3OC[C@H](Nc4nccc(C(F)(F)F)n4)[C@@H](O)[C@H]3O)(COCCC(=O)NCCOCCOCCOCCOC[C@H]3OC[C@H](Nc4nccc(C(F)(F)F)n4)[C@@H](O)[C@H]3O)COCCC(=O)NCCOCCOCCOCCOC[C@H]3OC[C@H](Nc4nccc(C(F)(F)F)n4)[C@@H](O)[C@H]3O)nn2)CSSC[C@@H](C(=O)N[C@H](C(N)=O)[C@@H](C)O)NC(=O)[C@H](Cc2c[nH]c3ccccc23)NC(=O)[C@H](C(C)C)NC(=O)[C@H](CC(C)C)NC(=O)[C@H](CCC(=O)O)NC(=O)CNC1=O [Compound 90] | > 7.00 | > 7.00 | > 7.00 | – | – | – | – |
| CC(C)C[C@@H]1NC(=O)[C@H](Cc2cnc[nH]2)NC(=O)[C@H](Cc2c[nH]c3ccccc23)NC(=O)[C@H](C)NC(=O)[C@@H]2CSSC[C@H](NC(=O)[C@H](Cc3c[nH]c4ccccc34)NC(=O)[C@H](C(C)C)NC(=O)[C@H](CC(C)C)NC(=O)[C@H](CCC(=O)O)NC(=O)CNC1=O)C(=O)N[C@@H]([C@@H](C)O)C(=O)N1CCC[C@@H]1C(=O)N1C[C@H](NC(=O)COCCOCC(=O)NC[C@H]3OC[C@H](Nc4cncc(C(F)(F)F)n4)[C@@H](O)[C@H]3O)C[C@H]1C(=O)N[C@@H](CC(=O)O)C(=O)N2 [Compound 91] | – | > 7.00 | – | > 7.00 | > 7.00 | – | – |
| O=C(CCOCCNC(=O)COCCOCCOCCNc1ccc([N+](=O)[O-])cc1[N+](=O)[O-])NCCOCCOCCOCCOC[C@@]12CO[C@@H](O1)[C@H](Nc1nc(Cl)ns1)[C@@H](O)[C@H]2O [Compound 29, N-(1-((1S,2R,3R,4R,5S)-4-((3-chloro-1,2,4-thiadiazol-5-yl)amino)-2,3-dihydroxy-6,8-dioxabicyclo[3.2.1]octan-1-yl)-2,5,8,11-tetraoxatridecan-13-yl)-3-((14-((2,4-dinitrophenyl)amino)-4-oxo-6,9,12-trioxa-3-azatetradecyl)oxy)propanamide] | – | – | 6.30 to 7.00 | – | – | < 100 | < 100 |
| O=C(CCOCC(COCCC(=O)NCCOCCOCCOCCOC[C@@]12CO[C@@H](O1)[C@H](Nc1nccc(C(F)(F)F)n1)[C@@H](O)[C@H]2O)NC(=O)COCCOCCOCCNc1ccc([N+](=O)[O-])cc1[N+](=O)[O-])NCCOCCOCCOCCOC[C@@]12CO[C@@H](O1)[C@H](Nc1nccc(C(F)(F)F)n1)[C@@H](O)[C@H]2O [Compound 31, 3,3′-((2-(2-(2-(2-(2-((2,4-dinitrophenyl)amino)ethoxy)ethoxy)ethoxy)acetamido)propane-1,3-diyl)bis(oxy))bis(N-(1-((1S,2R,3R,4R,5S)-2,3-dihydroxy-4-((4-(trifluoromethyl)pyrimidin-2-yl)amino)-6,8-dioxabicyclo[3.2.1]octan-1-yl)-2,5,8,11-tetraoxatridecan-13-yl)propanamide)] | – | – | > 7.00 | – | – | < 100 | < 100 |
| CC(C)C[C@@H]1NC(=O)[C@H](Cc2c[nH]cn2)NC(=O)[C@H](Cc2c[nH]c3ccccc23)NC(=O)[C@H](C)NC(=O)[C@@H](NC(=O)[C@H](CC(=O)O)NC(=O)CCOCCOCCOCCOCCNC(=O)CCCc2cn(CCCCCC(=O)NC(COCCC(=O)NCCOCCOCCOCCOC[C@@H]3CC[C@@H](Nc4nccc(C(F)(F)F)n4)CO3)COCCC(=O)NCCOCCOCCOCCOC[C@@H]3CC[C@@H](Nc4nccc(C(F)(F)F)n4)CO3)nn2)CSSC[C@@H](C(=O)N[C@H](C(N)=O)[C@@H](C)O)NC(=O)[C@H](Cc2c[nH]c3ccccc23)NC(=O)[C@H](C(C)C)NC(=O)[C@H](CC(C)C)NC(=O)[C@H](CCC(=O)O)NC(=O)CNC1=O [Compound 87] | – | < 6.00 | < 6.00 | – | < 6.00 | – | – |
| CC(C)C[C@@H]1NC(=O)[C@H](Cc2c[nH]cn2)NC(=O)[C@H](Cc2c[nH]c3ccccc23)NC(=O)[C@H](C)NC(=O)[C@@H]2CSSC[C@H](NC(=O)[C@H](Cc3c[nH]c4ccccc34)NC(=O)[C@H](C(C)C)NC(=O)[C@H](CC(C)C)NC(=O)[C@H](CCC(=O)O)NC(=O)CNC1=O)C(=O)N[C@@H]([C@@H](C)O)C(=O)N1CCC[C@@H]1C(=O)N1C[C@@H](NC(=O)CNC(COCCC(=O)NCCOCCOCCOCCO[C@@H]3O[C@H](CO)[C@H](O)[C@H](O)[C@H]3Nc3cncc(C(F)(F)F)n3)COCCC(=O)NCCOCCOCCOCCO[C@@H]3O[C@H](CO)[C@H](O)[C@H](O)[C@H]3Nc3cncc(C(F)(F)F)n3)C[C@H]1C(=O)N[C@@H](CC(=O)O)C(=O)N2 [Compound 71] | > 7.00 | > 7.00 | > 7.00 | – | – | – | – |
| CC(C)C[C@@H]1NC(=O)[C@H](Cc2c[nH]cn2)NC(=O)[C@H](Cc2c[nH]c3ccccc23)NC(=O)[C@H](C)NC(=O)[C@@H](NC(=O)[C@H](CC(=O)O)NC(=O)CCOCCOCCOCCOCCNC(=O)CCCc2cn(CCCCCC(=O)NC(COCCC(=O)NCCOCCOCCOCCOC[C@H]3OC[C@H](Nc4nccc(C(F)(F)F)n4)C[C@H]3O)COCCC(=O)NCCOCCOCCOCCOC[C@H]3OC[C@H](Nc4nccc(C(F)(F)F)n4)C[C@H]3O)nn2)CSSC[C@@H](C(=O)N[C@H](C(N)=O)[C@@H](C)O)NC(=O)[C@H](Cc2c[nH]c3ccccc23)NC(=O)[C@H](C(C)C)NC(=O)[C@H](CC(C)C)NC(=O)[C@H](CCC(=O)O)NC(=O)CNC1=O [Compound 88] | < 6.00 | < 6.00 | < 6.00 | – | – | – | – |
| O=[N+]([O-])c1ccc(NCCOCCOCCOCCOC[C@@]23CO[C@@H](O2)[C@H](Nc2nc(Cl)ns2)[C@@H](O)[C@H]3O)c([N+](=O)[O-])c1 [Compound 27, (1S,2R,3R,4R,5S)-4-((3-chloro-1,2,4-thiadiazol-5-yl)amino)-1-(13-((2,4-dinitrophenyl)amino)-2,5,8,11-tetraoxatridecyl)-6,8-dioxabicyclo[3.2.1]octane-2,3-diol] | – | – | > 7.00 | – | – | < 100 | < 100 |
| O=C(CCOCC(COCCC(=O)NCCOCCOCCOCCOC[C@@]12CO[C@@H](O1)[C@H](Nc1nc(Cl)ns1)[C@@H](O)[C@H]2O)NC(=O)COCCOCCOCCNc1ccc([N+](=O)[O-])cc1[N+](=O)[O-])NCCOCCOCCOCCOC[C@@]12CO[C@@H](O1)[C@H](Nc1nc(Cl)ns1)[C@@H](O)[C@H]2O [Compound 30, 3,3′-((2-(2-(2-(2-(2-((2,4-dinitrophenyl)amino)ethoxy)ethoxy)ethoxy)acetamido)propane-1,3-diyl)bis(oxy))bis(N-(1-((1S,2R,3R,4R,5S)-4-((3-chloro-1,2,4-thiadiazol-5-yl)amino)-2,3-dihydroxy-6,8-dioxabicyclo[3.2.1]octan-1-yl)-2,5,8,11-tetraoxatridecan-13-yl)propanamide)] | – | – | > 7.00 | – | – | < 100 | < 100 |
